Assays:
[1] = molecular target: MAP3K3 (human) (UniProt Q99759); assay: SelectScreen, TR FRET
[2] = molecular target: LRRK2 (human), Q5S007 [G2019S]; assay: SelectScreen, TR FRET
[3] = molecular target: TAOK2 (human) (UniProt Q9UL54); assay: SelectScreen, TR FRET
[4] = molecular target: MAP3K2 (human) (UniProt Q9Y2U5); assay: SelectScreen, TR FRET
[5] = molecular target: TTK (human) (UniProt P33981); assay: KINOMEscan competition binding; conditions: for kinase still bound, per cent of control: compound 10.0 µM
Sequence of TTK (human) (P33981 whole entry, looked up): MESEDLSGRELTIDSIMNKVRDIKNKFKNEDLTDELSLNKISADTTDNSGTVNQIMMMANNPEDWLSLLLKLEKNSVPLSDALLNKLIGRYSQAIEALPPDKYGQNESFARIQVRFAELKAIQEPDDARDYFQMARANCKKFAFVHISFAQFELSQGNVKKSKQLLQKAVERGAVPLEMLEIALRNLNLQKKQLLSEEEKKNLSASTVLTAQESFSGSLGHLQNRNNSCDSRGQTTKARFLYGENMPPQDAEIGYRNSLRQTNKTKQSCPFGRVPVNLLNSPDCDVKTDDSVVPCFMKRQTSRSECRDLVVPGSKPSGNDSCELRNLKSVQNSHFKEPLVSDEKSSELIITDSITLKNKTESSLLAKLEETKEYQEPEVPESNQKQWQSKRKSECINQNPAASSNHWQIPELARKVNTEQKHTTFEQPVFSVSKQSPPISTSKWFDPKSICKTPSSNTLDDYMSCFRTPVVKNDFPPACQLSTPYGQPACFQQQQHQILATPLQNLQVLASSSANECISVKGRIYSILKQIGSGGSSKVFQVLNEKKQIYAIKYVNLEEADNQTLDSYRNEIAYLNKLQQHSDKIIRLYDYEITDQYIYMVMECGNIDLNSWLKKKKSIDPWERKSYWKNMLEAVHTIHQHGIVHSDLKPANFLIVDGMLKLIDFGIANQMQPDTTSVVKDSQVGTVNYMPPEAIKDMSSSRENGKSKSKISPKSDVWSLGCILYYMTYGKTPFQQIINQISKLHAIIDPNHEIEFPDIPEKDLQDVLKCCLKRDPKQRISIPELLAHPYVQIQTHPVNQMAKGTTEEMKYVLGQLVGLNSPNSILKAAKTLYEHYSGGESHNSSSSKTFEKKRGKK

[6] = molecular target: ROS1 (human) (UniProt P08922); assay: KINOMEscan competition binding; conditions: compound 10.0 µM
[7] = molecular target: GAK (human) (UniProt O14976); assay: KINOMEscan competition binding; conditions: compound 10.0 µM
[8] = molecular target: TNK2 (human) (UniProt Q07912); assay: KINOMEscan competition binding; conditions: compound 10.0 µM
[9] = molecular target: RPS6KA6 KD2 (human) (UniProt Q9UK32); assay: KINOMEscan competition binding; conditions: compound 10.0 µM
[10] = molecular target: DCLK1 (human) (UniProt O15075); assay: KINOMEscan competition binding
Sequence of DCLK1 (human) (O15075 whole entry, looked up): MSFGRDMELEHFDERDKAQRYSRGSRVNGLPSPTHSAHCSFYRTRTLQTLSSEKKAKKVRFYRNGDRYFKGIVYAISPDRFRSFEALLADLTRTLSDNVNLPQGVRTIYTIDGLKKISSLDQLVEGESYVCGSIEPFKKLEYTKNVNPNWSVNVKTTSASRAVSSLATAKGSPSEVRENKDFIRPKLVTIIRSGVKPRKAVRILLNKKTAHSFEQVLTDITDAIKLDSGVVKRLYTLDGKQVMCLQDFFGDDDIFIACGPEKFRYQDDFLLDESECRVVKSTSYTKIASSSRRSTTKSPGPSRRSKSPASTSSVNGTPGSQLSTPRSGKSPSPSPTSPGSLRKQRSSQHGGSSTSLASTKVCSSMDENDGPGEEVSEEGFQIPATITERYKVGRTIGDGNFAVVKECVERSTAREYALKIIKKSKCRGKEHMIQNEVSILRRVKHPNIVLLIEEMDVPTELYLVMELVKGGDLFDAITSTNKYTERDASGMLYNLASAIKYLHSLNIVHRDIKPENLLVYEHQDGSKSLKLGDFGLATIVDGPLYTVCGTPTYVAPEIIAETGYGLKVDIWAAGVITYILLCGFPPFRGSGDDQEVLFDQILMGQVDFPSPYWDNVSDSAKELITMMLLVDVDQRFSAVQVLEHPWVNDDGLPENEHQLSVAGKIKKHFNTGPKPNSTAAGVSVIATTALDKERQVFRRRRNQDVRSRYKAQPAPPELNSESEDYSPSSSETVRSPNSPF

[11] = molecular target: MAPK7 (human) (UniProt Q13164); assay: KINOMEscan competition binding; conditions: compound 10.0 µM
[12] = molecular target: ALK (human) (UniProt Q9UM73); assay: KINOMEscan competition binding; conditions: compound 10.0 µM
[13] = molecular target: PLK4 (human) (UniProt O00444); assay: KINOMEscan competition binding; conditions: compound 10.0 µM
Sequence of PLK4 (human) (O00444 whole entry, looked up): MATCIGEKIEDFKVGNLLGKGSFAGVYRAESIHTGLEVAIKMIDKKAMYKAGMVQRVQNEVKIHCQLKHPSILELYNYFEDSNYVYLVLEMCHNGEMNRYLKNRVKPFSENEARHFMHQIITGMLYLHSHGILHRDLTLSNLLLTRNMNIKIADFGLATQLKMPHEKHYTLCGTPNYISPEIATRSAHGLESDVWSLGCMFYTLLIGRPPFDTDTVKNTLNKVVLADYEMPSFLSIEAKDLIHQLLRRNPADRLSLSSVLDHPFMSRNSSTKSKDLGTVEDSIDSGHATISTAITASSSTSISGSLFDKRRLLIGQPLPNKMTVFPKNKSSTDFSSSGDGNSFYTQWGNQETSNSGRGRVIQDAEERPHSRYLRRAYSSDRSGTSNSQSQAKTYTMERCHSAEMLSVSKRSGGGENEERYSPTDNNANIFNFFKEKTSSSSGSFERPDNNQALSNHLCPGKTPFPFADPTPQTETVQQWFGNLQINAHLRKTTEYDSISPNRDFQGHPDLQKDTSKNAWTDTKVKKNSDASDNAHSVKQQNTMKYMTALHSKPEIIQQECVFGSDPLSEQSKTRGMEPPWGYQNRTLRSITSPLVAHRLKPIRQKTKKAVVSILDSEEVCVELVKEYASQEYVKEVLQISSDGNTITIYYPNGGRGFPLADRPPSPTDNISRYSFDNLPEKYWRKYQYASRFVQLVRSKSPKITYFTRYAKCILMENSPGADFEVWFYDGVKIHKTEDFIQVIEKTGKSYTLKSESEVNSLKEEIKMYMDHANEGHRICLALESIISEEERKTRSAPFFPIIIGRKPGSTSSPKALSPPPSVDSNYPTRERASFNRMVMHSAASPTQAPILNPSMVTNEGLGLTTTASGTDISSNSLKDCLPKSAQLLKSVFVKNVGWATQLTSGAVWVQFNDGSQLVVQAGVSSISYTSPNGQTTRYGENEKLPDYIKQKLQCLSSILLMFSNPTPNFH

[14] = molecular target: TNK1 (human) (UniProt Q13470); assay: KINOMEscan competition binding; conditions: compound 10.0 µM
[15] = molecular target: DCLK2 (human) (UniProt Q8N568); assay: KINOMEscan competition binding; conditions: compound 10.0 µM
Sequence of DCLK2 (human) (Q8N568 whole entry, looked up): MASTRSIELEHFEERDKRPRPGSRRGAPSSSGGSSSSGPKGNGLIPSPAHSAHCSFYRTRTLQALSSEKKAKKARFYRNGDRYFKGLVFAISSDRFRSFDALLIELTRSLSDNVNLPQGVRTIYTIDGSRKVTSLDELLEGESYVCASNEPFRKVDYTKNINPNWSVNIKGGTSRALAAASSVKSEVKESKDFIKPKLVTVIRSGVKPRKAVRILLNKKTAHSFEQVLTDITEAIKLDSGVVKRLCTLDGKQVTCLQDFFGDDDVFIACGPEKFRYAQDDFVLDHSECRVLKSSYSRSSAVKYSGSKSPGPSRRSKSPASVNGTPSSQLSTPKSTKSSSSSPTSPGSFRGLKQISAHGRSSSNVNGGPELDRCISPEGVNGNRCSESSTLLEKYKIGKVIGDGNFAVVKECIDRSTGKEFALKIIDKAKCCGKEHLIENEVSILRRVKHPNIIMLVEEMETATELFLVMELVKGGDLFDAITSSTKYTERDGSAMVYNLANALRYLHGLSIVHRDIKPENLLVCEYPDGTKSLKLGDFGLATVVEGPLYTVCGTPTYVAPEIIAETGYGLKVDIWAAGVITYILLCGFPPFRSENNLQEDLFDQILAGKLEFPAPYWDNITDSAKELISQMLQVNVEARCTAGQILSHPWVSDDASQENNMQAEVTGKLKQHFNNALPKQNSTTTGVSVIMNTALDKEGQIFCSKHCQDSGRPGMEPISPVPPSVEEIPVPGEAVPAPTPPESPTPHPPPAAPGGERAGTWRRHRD

[16] = test system: ABL1 (human), P00519 [F317I]; assay: KINOMEscan competition binding; conditions: compound 10.0 µM
[17] = molecular target: RPS6KA1 KD2 (human) (UniProt Q15418); assay: KINOMEscan competition binding; conditions: compound 10.0 µM
[18] = molecular target: PTK6 (human) (UniProt Q13882); assay: SelectScreen, TR FRET
[19] = molecular target: TTK (human) (UniProt P33981); assay: SelectScreen, TR FRET
[20] = molecular target: CSF1R (human) (UniProt P07333); assay: SelectScreen, TR FRET
[21] = molecular target: FRK (human) (UniProt P42685); assay: SelectScreen, TR FRET
[22] = molecular target: DCLK2 (human) (UniProt Q8N568); assay: SelectScreen, TR FRET
[23] = molecular target: PLK1 (human) (UniProt P53350); assay: KINOMEscan competition binding; conditions: compound 10.0 µM
[24] = molecular target: JAK2 JH1 catalytic (human) (UniProt O60674); assay: KINOMEscan competition binding; conditions: compound 10.0 µM
[25] = molecular target: DYRK1A (human) (UniProt Q13627); assay: SelectScreen, TR FRET
[26] = molecular target: DYRK1B (human) (UniProt Q9Y463); assay: SelectScreen, TR FRET
Sequence of DYRK1B (human) (Q9Y463 whole entry, looked up): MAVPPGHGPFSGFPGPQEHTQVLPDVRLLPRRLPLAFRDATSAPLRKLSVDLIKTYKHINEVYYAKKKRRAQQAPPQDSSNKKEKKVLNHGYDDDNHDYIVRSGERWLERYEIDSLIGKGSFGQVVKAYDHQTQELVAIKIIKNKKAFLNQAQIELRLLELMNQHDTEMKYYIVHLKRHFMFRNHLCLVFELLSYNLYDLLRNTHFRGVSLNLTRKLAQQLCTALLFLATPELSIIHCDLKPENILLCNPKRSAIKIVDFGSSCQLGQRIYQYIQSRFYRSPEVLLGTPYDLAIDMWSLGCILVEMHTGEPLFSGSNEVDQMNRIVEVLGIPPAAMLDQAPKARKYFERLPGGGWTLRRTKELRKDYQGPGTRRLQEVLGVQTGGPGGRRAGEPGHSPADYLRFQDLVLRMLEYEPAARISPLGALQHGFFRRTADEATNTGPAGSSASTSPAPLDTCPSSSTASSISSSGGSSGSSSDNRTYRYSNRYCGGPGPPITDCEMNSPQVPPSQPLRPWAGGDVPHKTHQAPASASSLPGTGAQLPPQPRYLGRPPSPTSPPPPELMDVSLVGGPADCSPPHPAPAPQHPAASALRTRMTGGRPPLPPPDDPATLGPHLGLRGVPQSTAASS

[27] = molecular target: HIPK1 (human) (UniProt Q86Z02); assay: SelectScreen, TR FRET
[28] = molecular target: HIPK2 (human) (UniProt Q9H2X6); assay: SelectScreen, TR FRET
[29] = molecular target: MAPK10 (human) (UniProt P53779); assay: KINOMEscan competition binding; conditions: compound 10.0 µM
[30] = molecular target: CLK2 (human) (UniProt P49760); assay: KINOMEscan competition binding; conditions: compound 10.0 µM
[31] = molecular target: DAPK1 (human) (UniProt P53355); assay: KINOMEscan competition binding; conditions: compound 10.0 µM
[32] = molecular target: PIM1 (human) (UniProt P11309); assay: KINOMEscan competition binding; conditions: compound 10.0 µM
[33] = molecular target: RPS6KA5 KD2 (human) (UniProt O75582); assay: KINOMEscan competition binding; conditions: compound 10.0 µM
[34] = molecular target: DYRK1B (human) (UniProt Q9Y463); assay: KINOMEscan competition binding; conditions: compound 10.0 µM
[35] = molecular target: PIM2 (human) (UniProt Q9P1W9); assay: KINOMEscan competition binding; conditions: compound 10.0 µM
[36] = molecular target: BMPR1B (human) (UniProt O00238); assay: KINOMEscan competition binding; conditions: compound 10.0 µM
[37] = molecular target: STK17A (human) (UniProt Q9UEE5); assay: KINOMEscan competition binding; conditions: compound 10.0 µM
[38] = molecular target: CAMKK2 (human) (UniProt Q96RR4); assay: KINOMEscan competition binding; conditions: compound 10.0 µM
[39] = molecular target: PAK2 (human) (UniProt Q13177); assay: KINOMEscan competition binding; conditions: compound 10.0 µM
[40] = molecular target: DAPK3 (human) (UniProt O43293); assay: KINOMEscan competition binding; conditions: compound 10.0 µM
[41] = test system: EIF2AK4 KD2 (human), Q9P2K8 [S808G]; assay: KINOMEscan competition binding; conditions: compound 10.0 µM
[42] = molecular target: CLK1 (human) (UniProt P49759); assay: KINOMEscan competition binding; conditions: compound 10.0 µM
[43] = molecular target: MAP4K2 (human) (UniProt Q12851); assay: KINOMEscan competition binding; conditions: compound 10.0 µM
[44] = molecular target: RPS6KA4 KD2 (human) (UniProt O75676); assay: KINOMEscan competition binding; conditions: compound 10.0 µM
[45] = molecular target: MAPK8 (human) (UniProt P45983); assay: KINOMEscan competition binding; conditions: compound 10.0 µM
[46] = molecular target: AAK1 (human) (UniProt Q2M2I8); assay: KINOMEscan competition binding; conditions: compound 10.0 µM
[47] = molecular target: HIPK1 (human) (UniProt Q86Z02); assay: KINOMEscan competition binding; conditions: compound 10.0 µM
[48] = molecular target: STK17B (human) (UniProt O94768); assay: KINOMEscan competition binding; conditions: compound 10.0 µM
[49] = molecular target: PIM3 (human) (UniProt Q86V86); assay: KINOMEscan competition binding; conditions: compound 10.0 µM
[50] = molecular target: CSNK1G1 (human) (UniProt Q9HCP0); assay: KINOMEscan competition binding; conditions: compound 10.0 µM
[51] = molecular target: CLK4 (human) (UniProt Q9HAZ1); assay: KINOMEscan competition binding; conditions: compound 10.0 µM
Sequence of CLK4 (human) (Q9HAZ1 whole entry, looked up): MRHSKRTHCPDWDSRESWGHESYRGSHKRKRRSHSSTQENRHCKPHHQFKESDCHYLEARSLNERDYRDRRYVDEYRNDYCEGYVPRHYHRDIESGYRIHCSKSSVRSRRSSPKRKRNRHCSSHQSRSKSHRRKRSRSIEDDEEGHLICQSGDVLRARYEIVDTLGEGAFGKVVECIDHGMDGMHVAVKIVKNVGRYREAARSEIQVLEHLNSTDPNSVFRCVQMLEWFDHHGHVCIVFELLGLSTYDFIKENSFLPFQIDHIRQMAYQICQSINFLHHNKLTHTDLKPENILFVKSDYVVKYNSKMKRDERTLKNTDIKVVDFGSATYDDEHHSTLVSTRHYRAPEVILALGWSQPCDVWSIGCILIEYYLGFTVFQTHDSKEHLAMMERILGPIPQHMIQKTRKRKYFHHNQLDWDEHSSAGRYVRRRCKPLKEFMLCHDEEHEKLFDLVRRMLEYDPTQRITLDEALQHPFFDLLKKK

[52] = molecular target: DAPK2 (human) (UniProt Q9UIK4); assay: KINOMEscan competition binding; conditions: compound 10.0 µM

Sequence of MAP3K3 (human) (Q99759 whole entry, looked up): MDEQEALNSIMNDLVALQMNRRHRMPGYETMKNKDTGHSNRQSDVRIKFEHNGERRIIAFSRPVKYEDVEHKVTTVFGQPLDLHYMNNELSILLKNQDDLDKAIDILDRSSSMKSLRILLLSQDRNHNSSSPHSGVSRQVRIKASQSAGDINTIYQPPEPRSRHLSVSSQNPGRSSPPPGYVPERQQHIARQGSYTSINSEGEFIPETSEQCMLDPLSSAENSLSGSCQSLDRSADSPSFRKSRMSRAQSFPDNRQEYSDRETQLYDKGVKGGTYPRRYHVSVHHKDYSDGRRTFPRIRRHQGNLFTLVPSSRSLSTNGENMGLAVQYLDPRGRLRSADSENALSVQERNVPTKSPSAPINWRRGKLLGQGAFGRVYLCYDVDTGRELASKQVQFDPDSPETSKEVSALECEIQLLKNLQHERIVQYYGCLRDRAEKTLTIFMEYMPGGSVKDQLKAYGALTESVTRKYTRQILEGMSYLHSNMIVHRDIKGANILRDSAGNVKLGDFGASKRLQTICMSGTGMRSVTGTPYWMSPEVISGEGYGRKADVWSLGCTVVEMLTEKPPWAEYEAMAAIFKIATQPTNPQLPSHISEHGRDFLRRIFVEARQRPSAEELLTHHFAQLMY

CCOc1cc(N2CCC(O)CC2)ccc1Nc1ncc2c(n1)N(C)c1ccccc1C(=O)N2C
IC50 [1]: 120 nM
IC50 [2]: 2.6 nM
IC50 [3]: 54.3 nM
IC50 [4]: 155 nM
kinase still bound, per cent of control [5]: 19%
kinase still bound, per cent of control [6]: 15%
kinase still bound, per cent of control [7]: 31%
kinase still bound, per cent of control [8]: 17%
kinase still bound, per cent of control [9]: 31%
Kd [10]: 97 nM
kinase still bound, per cent of control ([10]; compound 10.0 µM): 0.9%
kinase still bound, per cent of control [11]: 0%
kinase still bound, per cent of control [12]: 29%
kinase still bound, per cent of control [13]: 2.8%
kinase still bound, per cent of control [14]: 7.8%
kinase still bound, per cent of control [15]: 0.65%
kinase still bound, per cent of control [16]: 30%
kinase still bound, per cent of control [17]: 28%

CN1C(=O)CCN(C2CCCC2)c2nc(Nc3ccc(N4CCC(O)CC4)cn3)ncc21
IC50 [18]: 47 nM
IC50 [19]: 891 nM
IC50 [20]: 428 nM
IC50 [21]: 264 nM
IC50 [22]: 3200 nM
Kd [5]: 130 nM
kinase still bound, per cent of control [5]: 2.2%
kinase still bound, per cent of control [7]: 23%
kinase still bound, per cent of control [13]: 16%
kinase still bound, per cent of control [23]: 24%
kinase still bound, per cent of control [24]: 6.4%

N=C1NC(=O)/C(=C/c2c[nH]c(=O)c(-c3ccc4cc[nH]c4c3)c2)S1
IC50 [25]: 19 nM
IC50 [26]: 62 nM
IC50 [27]: 3810 nM
IC50 [28]: 3890 nM
kinase still bound, per cent of control [29]: 29%
kinase still bound, per cent of control [30]: 4.8%
kinase still bound, per cent of control [31]: 9.7%
kinase still bound, per cent of control [32]: 16%
kinase still bound, per cent of control [33]: 23%
kinase still bound, per cent of control [34]: 8.6%
kinase still bound, per cent of control [35]: 15%
kinase still bound, per cent of control [36]: 6.2%
kinase still bound, per cent of control [37]: 5%
kinase still bound, per cent of control [38]: 29%
kinase still bound, per cent of control [39]: 34%
kinase still bound, per cent of control [40]: 8.6%
kinase still bound, per cent of control [41]: 21%
kinase still bound, per cent of control [42]: 24%
kinase still bound, per cent of control [43]: 15%
kinase still bound, per cent of control [44]: 8.8%
kinase still bound, per cent of control [45]: 28%
kinase still bound, per cent of control [46]: 20%
kinase still bound, per cent of control [47]: 4.2%
kinase still bound, per cent of control [48]: 13%
kinase still bound, per cent of control [49]: 12%
kinase still bound, per cent of control [50]: 24%
kinase still bound, per cent of control [51]: 30%
kinase still bound, per cent of control [52]: 4%

Source: the kinase profiling compilation of Christmann-Franck et al. (2016)
